Earlier results as cited in patent US5665721A, “Heterocyclic substituted cyclopentane compounds” (Abbott Laboratories, priority 1995, dated 1997).

System: adenosine kinase
Settings: literature; cited from earlier work

SMILES	reported to inhibit adenosine kinase (in words)
C[C@H]1O[C@@H](n2cc(I)c3c(N)ncnc32)[C@H](O)[C@@H]1O [5'-deoxy-5-iodotubercidin]	most potent
Nc1ncnc2c1c(I)cn2[C@@H]1O[C@H](CO)[C@@H](O)[C@H]1O [5-iodotubercidin]	most potent
